Where no end group is shown, it is not given here. The star is where a group is joined. Biotin = O=C1N[C@H]2[C@H](CS[C@H]2CCCCC(=O)*)N1

The test system of the first test is pellicle coated enamel substrates.
Experiment: not given
As to conditions: 20 μM biotinylated peptide, streptavidin-HRP, normalized to DenP03, three replicates. As for the experimental part:
A total of 20 synthetic peptides were manufactured using sequences obtained from Table 6. Peptides were obtained from SynBioSci Corp. (Livermore, Calif.) and included an additional sequence (SSRP; SEQ ID NO: 118) at the N-terminus and biotin labeled lysine at the C-terminus.
Enamel substrates were cut into approximately 7 mm squares and mounted on wax mounting for incubation in the mouth for 30 min to form a pellicle coated surface. The pellicle coated enamel substrates were removed from the wax backing and placed in well plates with the pellicle surface exposed as in Example 5. Each pellicle coated substrate was incubated for 1 h at room temperature (˜22° C.) with 1 mL of blocking buffer, consisting of 1 mg/mL BSA in PBST (Pierce BUPH™ #28372 with 0.1% TWEEN® 20). The blocking buffer was removed by aspirating the liquid out of each well. The tube was rinsed 2 times with wash buffer consisting of PBST. The wells were filled with 500 μL of 20 μM peptide solution which was prepared by diluting in blocking buffer. The samples were incubated for 30 min with slow shaking at 37° C. The non-binding peptide was removed by washing 6 times with PBST. Then, 500 μL of horseradish peroxidase/streptavidin conjugate (Pierce #22127), diluted 1:2000 in PBST, was added and incubated for 1 h at room temperature (˜22° C.). The conjugate solution was removed and was washed 4 times with PBST.
Each enamel substrate was removed from the well and washed again in a 15-mL test tube with 10 mL of PBST. Each enamel substrate was then mounted in a clean well plate with only the enamel surface exposed. A 1:1 solution of TMB substrate and H2O2 (200 μL) was added to each well and the color was allowed to develop for between 10 to 20 min, typically for 15 min, at room temperature (˜22° C.). Then, 100 μL of solution from each well was transferred to a 96 well reading plate containing stop solution (100 μL of 2 M H2SO4) in each well. The A450 was measured using a microplate spectrophotometer (Molecular Devices, Sunnyvale, Calif.). […] Each sequence was tested with three replicate enamel coated pellicle substrates.
With “SSRPAPPTYQTASYPHNLPSKRKMK(Biotin) [DenP28-A]”, the “O.D.450 (normalized)” value came out at 0.811.
Same read-out and setting: the value for SSRPDLGTFPNRTLKMAAHK(Biotin) [DenP11-A] was 0.454; that for “SSRPEFPYYNDNPPNPERHTLRK(Biotin) [DenP7-A]” was 0.356.
As for “SSRPELDHDSRHYMNGLQRKVTK(Biotin) [DenP15-A]”, the “O.D.450 (normalized)” value is 0.460.
The same measure, in the same setting: the value for SSRPFDGIGLGTATRHQNRK(Biotin) [DenP12-A] was 0.475; that for “SSRPGPQHVLMQDTHQGYAFDNK(Biotin) [DenP16-A]” was 0.309; that for “SSRPHDPNHLTHQARTIYRNANHTK(Biotin) [DenP23-A]” was 0.850.
On the same count and under the same terms, in the case of “SSRPIYPNESMSTSNVRGPYHPK(Biotin) [DenP22-A]” it was 0.354; in that of “SSRPNGNNHTDIPNRSSYTGGSFAK(Biotin) [DenP1-A]”, 0.154.
Regarding SSRPQAAQVHMMQHSRPTTK(Biotin) [DenP13-A], the “O.D.450 (normalized)” value amounted to 0.699.
Same read-out and setting: in the case of “SSRPQVPDYLSPTHQKKAFLEIPTK(Biotin) [DenP29-A]” it was 0.468; in that of “SSRPSEARARTFNDHTTPMPIIK(Biotin) [DenP14-A]”, 0.269; in that of “SSRPTMTNHVYNSYTEKHSSTHRSK(Biotin) [DenP2-A]”, 0.273.
Still for that read-out and setting: in the case of “SSRPTTGSSSQADTSASMSIVPAHK(Biotin) [DenP17-A]” it was 0.143.
On the same count and under the same terms, the value for “SSRPTYQGVPSWPAVIDDAIRRK(Biotin) [DenP19-A]” was 0.712; that for “SSRPVEPATKNMREARSSTQMRRIK(Biotin) [DenP4-A]” was 0.803.
For the substance “SSRPVNPNWVETQALHQPPGNTK(Biotin) [DenP20-A]”, the “O.D.450 (normalized)” value is given as 0.590.
Same read-out and setting: in the case of “SSRPYLLPKDQTTAPQVTPIVQHKK(Biotin) [DenP5-A]” it was 0.462.

The test system of another test is pellicle coated bovine enamel. The experiment in a line: Phage ELISA of brushed 8 hr pellicle candidates, screened with 30 min in vivo pellicle (Example 8). In kind it is binding, human. The following applies: 10^11 pfu phage, 30 min in vivo pellicle on bovine enamel, normalized to DenP3. The procedure:
A total of 18 selected phage candidates were used in a phage ELISA Experiment. Purified phage lysates were used for binding to pellicle coated bovine enamel using an anti-M13 phage antibody conjugated to horseradish-peroxidase, followed by the addition of chromogenic agent TMB. The plates were read at A450 nm.
The wells were rinsed 2 times with wash buffer consisting of PBST. The wells were filled with 1 mL of 10^11 pfu purified phage stock which was prepared by diluting in blocking buffer. […] The non-binding phage was removed by washing 5 times with PBST. Then, 500 μL of horseradish peroxidase/anti-M13 antibody conjugate (Amersham USA, Piscataway, N.J.), diluted 1:500 in the blocking buffer, was added and incubated for 45 min at room temperature. The conjugate solution was removed and was washed 5 times with PBST.
(ELISA stands for enzyme-linked immunosorbent assay.)
For “AIEYQHSATTPWTMRTRLPP (Synthetic oral-surface binding peptide) [DenP101]”, the “O.D.450 (normalized)” value is recorded as 0.467.
The same measure, in the same setting: in the case of “DGYKLQTSLDWQMWNP (Synthetic oral-surface binding peptide) [DenP111]” it was 1.051; in that of “EFYPFAEVPPEKSGIGRQVF (Synthetic oral-surface binding peptide) [DenP102]”, 0.520; in that of “FPSKWYNHHRHITGHV (Synthetic oral-surface binding peptide) [DenP112]”, 0.413.
Same read-out and setting: in the case of “GGMGALESYRQWNHLA (Synthetic oral-surface binding peptide) [DenP113]” it was 1.348.
For the substance “GINKGQRPPWESWHEN (Synthetic oral-surface binding peptide) [DenP114]”, the “O.D.450 (normalized)” value is 0.703.
Still for that read-out and setting: the value for “GVHQYSRPTVPSYLWTSGQH (Synthetic oral-surface binding peptide) [DenP103]” was 0.879; that for “GYGQYVSQQTWAHSNK (Synthetic oral-surface binding peptide) [DenP115]” was 0.501; that for “GYQPHYVDHTIGWQPMIRPN (Synthetic oral-surface binding peptide) [DenP104]” was 0.790.
Regarding “HDHLSWWGQFDRQNLL (Synthetic oral-surface binding peptide) [DenP116]”, the “O.D.450 (normalized)” value is 1.055.
With “MPGHQESIKVQNWNRV (Synthetic oral-surface binding peptide) [DenP117]”, the “O.D.450 (normalized)” value is on record as 0.433.
Turning to “NLHSPWPSHAAHHWST (Synthetic oral-surface binding peptide) [DenP118]”, the “O.D.450 (normalized)” value is recorded as 0.641.
Same read-out and setting: the value for “NQQMKLVPQHWHRAQP (Synthetic oral-surface binding peptide) [DenP119]” was 1.051; that for “QFNQTSHSFMHGTSGYVPGK (Synthetic oral-surface binding peptide) [DenP105]” was 0.470.
On to “SFSWHRGDWELGHQSKTMGM (Synthetic oral-surface binding peptide) [DenP106]”, for which the “O.D.450 (normalized)” value came out at 1.524.
Regarding “SMWHDITKRYRNPSEMVSAY (Synthetic oral-surface binding peptide) [DenP107]”, the “O.D.450 (normalized)” value is 0.726.
In the case of “THGNKHQSWTYPSEINHKNY (Synthetic oral-surface binding peptide) [DenP108]”, the “O.D.450 (normalized)” value stood at 1.149.
In the case of “TTYHYKNIYQESYQQRNPAV (Synthetic oral-surface binding peptide) [DenP3]”, the “O.D.450 (normalized)” value came to 1.000.
“WHEPHQFSGENTDYSSSMGT (Synthetic oral-surface binding peptide) [DenP109]”: the “O.D.450 (normalized)” value worked out at 0.716.

System in the next test: not listed separately
The experiment in a line: Phage ELISA, bovine enamel-binding assay. As to conditions: over 10^10 pfu phage, unpolished bovine enamel, A450. As for the experimental part:
A total of 11 selected phage candidates (Example 3) was used in a phage ELISA experiment. Purified phage lysates were used for binding to the enamel blocks using an anti-M13 phage antibody conjugated to horseradish-peroxidase, followed by the addition of chromogenic agent TMB. The plates were read at A450 nm.
For each phage candidate to be tested, the polished and unpolished enamel blocks were incubated for 1 h at room temperature with 200 μL of blocking buffer, consisting of 2% non-fat dry milk (Schleicher & Schuell, Inc.) in TBS. […] The tube was rinsed 6 times with wash buffer consisting of TBST-0.05%. The wells were filled with 200 μL of TBST-0.5% containing 1 mg/mL BSA and then 10 μL (over 10^10 pfu) of purified phage stock was added. The samples were incubated at room temperature for 60 min with slow shaking. The non-binding phage was removed by washing 6 times with TBST-0.5%. […] The conjugate solution was removed and was washed 6 times with TBST-0.5%. […] BoEn P means bovine polished enamel and BoEn means bovine enamel.
“AANPHTEWDRDAFQLAMPPK (Synthetic oral-surface binding peptide) [BoEn 1]”: the O.D.450 turned out to be 1.402.
On the same count and under the same terms, in the case of “LNDQRKPGPPTMPTHSPAVG (Synthetic oral-surface binding peptide) [BoEn 5]” it was 0.944; in that of “NTCATSPNSYTCSN (Synthetic oral-surface binding peptide) [BoEn 6]”, 2.38; in that of “SDCTAGLVPPLCAT (Synthetic oral-surface binding peptide) [BoEn 7]”, 0.892.
On to “VGTMKQHPTTTQPPRVSATN (Synthetic oral-surface binding peptide) [BoEn 9]”, for which the O.D.450 was determined as 0.568.
The same measure, in the same setting: the value for “YSETPNDQKPNPHYKVSGTK (Synthetic oral-surface binding peptide) [BoEn 10]” was 3.942.

The subject of the next test is pellicle coated bovine enamel. The experiment in a line: Phage ELISA on pellicle coated bovine enamel (Example 6). In kind it is binding, human. The following applies: 10^11 pfu phage, 30 min in vivo pellicle on bovine enamel, normalized to an internal control. As for the experimental part:
A total of 29 selected phage candidates from Table 5 were used in phage ELISA Experiment to determine binding affinity and coverage of each phage on pellicle substrates. Purified phage lysates were used for binding to pellicle coated bovine enamel using an anti-M13 phage antibody conjugated to horseradish-peroxidase, followed by the addition of chromogenic agent TMB. The plates were read at A450 nm.
The wells were filled with 1 mL of 10^11 pfu purified phage stock which was prepared by diluting in blocking buffer. […] The non-binding phage was removed by washing 5 times with PBST. […] The conjugate solution was removed and was washed 3 times with PBST.
For the substance “TTYHYKNIYQESYQQRNPAV (Synthetic oral-surface binding peptide) [DenP3]”, the “O.D.450 (normalized)” value came out at 2.495.

Values taken from patent US8354381B2, “Peptide compositions for oral care systems” (E I du Pont de Nemours and Company, priority 2009, dated 2013).
